Test results as given in paper PMC2828149 (Journal of ethnopharmacology, 2009).
Converted amounts (≈) assume the structure as drawn. Like-named read-outs stand apart in the source and are kept apart here.

Experiments:
in vitro = format: cell-based; details: human
[1] = molecular target: T1, recombinant human Monoamine Oxidase A (MAO-A) (Homo sapiens, UniProt P21397); test: kynuramine deamination assay, recombinant human MAO-A; format: biochemical; details: for MAO-A inhibitory activity in words: pure compounds; for MAO-A activity more potent than MAO-B: ratio of MAO-B to MAO-A IC50
T1 sequence (P21397 1-527): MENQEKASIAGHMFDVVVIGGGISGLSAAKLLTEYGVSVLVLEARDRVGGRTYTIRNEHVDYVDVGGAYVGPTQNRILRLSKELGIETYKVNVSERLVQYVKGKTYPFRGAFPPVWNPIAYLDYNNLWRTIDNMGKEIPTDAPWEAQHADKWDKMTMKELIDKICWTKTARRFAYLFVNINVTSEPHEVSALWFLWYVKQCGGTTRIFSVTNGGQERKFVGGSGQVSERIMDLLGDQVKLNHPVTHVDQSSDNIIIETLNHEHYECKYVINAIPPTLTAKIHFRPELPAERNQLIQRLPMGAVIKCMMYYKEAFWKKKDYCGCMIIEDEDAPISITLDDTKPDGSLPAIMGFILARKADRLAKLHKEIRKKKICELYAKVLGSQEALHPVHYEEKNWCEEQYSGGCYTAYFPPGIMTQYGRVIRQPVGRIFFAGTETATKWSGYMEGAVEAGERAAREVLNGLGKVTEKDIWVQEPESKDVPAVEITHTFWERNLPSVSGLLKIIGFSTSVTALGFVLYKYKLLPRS

[2] = molecular target: T2, recombinant human Monoamine Oxidase B (MAO-B) (Homo sapiens, UniProt P27338); test: biochemical; format: biochemical
T2 sequence (P27338 1-520): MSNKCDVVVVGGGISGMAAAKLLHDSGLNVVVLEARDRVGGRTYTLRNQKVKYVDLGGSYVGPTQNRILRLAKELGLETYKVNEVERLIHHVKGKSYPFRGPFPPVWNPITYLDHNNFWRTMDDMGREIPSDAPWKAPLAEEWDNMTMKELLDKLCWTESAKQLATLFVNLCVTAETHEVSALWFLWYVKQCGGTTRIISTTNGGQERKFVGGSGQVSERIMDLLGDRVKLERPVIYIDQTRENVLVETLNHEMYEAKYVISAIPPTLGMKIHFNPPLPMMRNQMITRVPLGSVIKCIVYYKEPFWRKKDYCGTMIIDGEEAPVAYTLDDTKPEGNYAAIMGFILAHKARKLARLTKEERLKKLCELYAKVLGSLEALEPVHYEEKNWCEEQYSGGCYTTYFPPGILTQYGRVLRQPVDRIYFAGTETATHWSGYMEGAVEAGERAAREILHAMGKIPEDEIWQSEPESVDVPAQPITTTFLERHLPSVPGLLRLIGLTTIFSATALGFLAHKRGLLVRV

[3] = test system: ROS generation in Myelomonocytic HL-60 cells; test: cell based antioxidant assay, inhibition of PMA-induced ROS generation; details: for Antioxidant IC50: inhibition of PMA-induced ROS generation in HL-60 cells; for IC50: Homo sapiens, HL-60, read-out: Antioxidant IC50
HL-60 cells = test: in vitro; format: cell-based; details: HL-60 cells, 48 hours, XTT
PC12 cells = details: ref Cho et al., 2008, Heo and Lee, 2005; cited from earlier work
MAO-A = details: liver homogenate; ref Schwartz et al., 2003; cited from earlier work
rat striatal slices = details: ref Schwartz et al., 2003; cited from earlier work
[4] = read-out: MAO-A IC50, pure compounds and standards
[5] = read-out: MAO-B IC50, pure compounds and standards

Compound	IC50 at 48 h (in vitro)	IC50 [1, 4]	IC50 [2, 5]	Antioxidant IC50 [3]	Cytotoxicity IC50 (HL-60 cells)	IC50 [3]	also measured
COc1cccc2c1C(=O)c1c(O)c3c(c(O)c1C2=O)C[C@@](O)(C(=O)CO)C[C@@H]3O[C@H]1C[C@H](N)[C@H](O)[C@H](C)O1 [Doxorubicin, reference compound]	0.2 to 0.35 µg/mL (≈ 0.368 to 0.644 µM)						
banistenoside A [compound 1]		4.9 µM	> 100 µM	NA (NA = No antioxidant activity upto 31.25 µg/mL)	>12.5 µg/mL		
Cc1[nH]ccc2c1[nH]c1cc(=O)ccc12 [compound 3, harmol]							IC50 [1]: 0.018 µM; MAO-A inhibitory activity in words [1]: much weaker than 6 or 7
COc1ccc2c3c([nH]c2c1)[C@@H](C)NCC3 [compound 5, tetrahydroharmine]		0.074 µM	> 100 µM	NA (NA = No antioxidant activity upto 31.25 µg/mL)	NC (NC = No cytotoxicity to HL-60 cells up to 31.25 µg/mL)		MAO-A inhibitory activity in words [1]: much weaker than 6 or 7
O=C1O[C@H]([C@@H](O)CO)C(O)=C1O [Vitamin C, reference compound]				1.34 µg/mL			
Oc1cc(O)c2c(c1)O[C@H](c1ccc(O)c(O)c1)[C@H](O)[C@H]2c1c(O)cc(O)c2c1O[C@H](c1ccc(O)c(O)c1)[C@H](O)C2 [compound 9, (−)-2R,3R-epicatechin-4β,8-(−)-2R,3R-epicatechin]		8.5 µM	35 µM	0.57 µg/mL	NC (NC = No cytotoxicity to HL-60 cells up to 31.25 µg/mL)		
Cc1c(C)c2c(c(C)c1O)CCC(C)(C(=O)O)O2 (stereo not drawn) [trolox, reference compound]						0.14 µg/mL (≈ 0.559 µM)	
COc1ccc2c3c([nH]c2c1)C(C)=NCC3 [compound 6, harmaline]	25 µg/mL (≈ 117 µM)					> 31.2 µg/mL	MAO-A activity more potent than MAO-B [1]: > 10,000 fold; IC50 [2]: 25 µM
Oc1cc(O)c2c(c1)O[C@H](c1ccc(O)c(O)c1)[C@H](O)C2 [compound 8, (−)-2R,3R–Epicatechin]	6.3 µg/mL (≈ 21.7 µM)					< 0.13 µg/mL	IC50 [1]: 51.7 µM; IC50 [2]: 65 µM; protection from Aβ-induced neurotoxicity in words (PC12 cells): protection
COc1ccc2c(c1)[nH]c1c(C)nccc12 [compound 7, harmine]	> 31.2 µg/mL					> 31.2 µg/mL	MAO-A activity more potent than MAO-B [1]: > 10,000 fold; IC50 [2]: 20 µM; inhibition of MAO-A in words (MAO-A): concentration-dependent inhibition; release of dopamine in words (rat striatal slices): increase
banistenoside B [compound 2]		21.5 µM	> 100 µM		7.8 µg/mL		
